The subject of data set [1] is recombinant NL4-3 virus (Renilla luciferase) in MT-2 cells. Description: HIV cell culture assay (antiviral activity, luciferase readout). Particulars: Renilla, NL43. Type of data set: cell-based. The gist of the method:
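MT-2 cells were infected with recombinant NL4-3 virus carrying Renilla luciferase in place of part of nef. Cells were cultured 4–5 days with serially diluted compound, and luciferase was measured with a live-cell substrate. EC50 was calculated from the median effect equation.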

Data set [2] is described as follows: Compound cytotoxicity, XTT-based colorimetric assay. Type of data set: cell-based. Conditions: human; uninfected MT2 cells, day 4, XTT. The method in brief: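 Run under the antiviral-assay protocol but without virus. Viability was read on day 4 and CC50 values were derived from the readout.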
On the technique in general: Tetrazolium assays rely on reduction of a dye to a coloured formazan, in cell work by metabolically active cells.

This is an account of results in US11541055B2, “Inhibitors of human immunodeficiency virus replication” (ViiV Healthcare UK (No. 5) LIMITED, priority 2018, dated 2023).

As usually defined, the EC50 is the concentration that produces a half-maximal response. For orientation: CC50 means the concentration giving 50% cytotoxicity.

Some results are limits rather than exact numbers.

`Cc1cc(C)nc(-c2ccc3c(=O)n(-c4ccc(Cl)c5c(NS(C)(=O)=O)nn(C)c45)c([C@H](Cc4cc(F)cc(F)c4)NC(=O)Cn4nc(C(F)F)c5c4C(F)(F)[C@@H]4C[C@H]54)nc3c2)c1` (atropisomer, axis not shown; (P)) [Example 1, N—((S)-1-((3P)-3-(4-chloro-1-methyl-3-(methylsulfonamido)-1H-indazol-7-yl)-7-(4,6-dimethylpyridin-2-yl)-4-oxo-3,4-dihydroquinazolin-2-yl)-2-(3,5-difluorophenyl)ethyl)-2-((3bS,4aR)-3-(difluoromethyl)-5,5-difluoro-3b,4,4a,5-tetrahydro-1H-cyclopropa[3,4]cyclopenta[1,2-c]pyrazol-1-yl)acetamide]: the EC50 in data set [1] was found to be 0.15 nM. Besides, the CC50 at 4 days in data set [2] was > 500 nM.

Consider `Cc1ccnc(-c2ccc3c(=O)n(-c4ccc(Cl)c5c(NS(C)(=O)=O)nn(C)c45)c([C@H](Cc4cc(F)cc(F)c4)NC(=O)Cn4nc(C(F)F)c5c4C(F)(F)[C@@H]4C[C@H]54)nc3c2)c1` (atropisomer, axis not shown; (P)) [Example 2, N—((S)-1-((3P)-3-(4-chloro-1-methyl-3-(methylsulfonamido)-1H-indazol-7-yl)-7-(4-methylpyridin-2-yl)-4-oxo-3,4-dihydroquinazolin-2-yl)-2-(3,5-difluorophenyl)ethyl)-2-((3bS,4aR)-3-(difluoromethyl)-5,5-difluoro-3b,4,4a,5-tetrahydro-1H-cyclopropa[3,4]cyclopenta[1,2-c]pyrazol-1-yl)acetamide], for which the concentration giving a half-maximal response (EC50) in data set [1] was found to be 0.059 nM. In data set [2], the CC50 at 4 days is > 500 nM.

For `Cn1nc(NS(C)(=O)=O)c2c(Cl)ccc(-n3c([C@H](Cc4cc(F)cc(F)c4)NC(=O)Cn4nc(C(F)F)c5c4C(F)(F)[C@@H]4C[C@H]54)nc4cc(-c5nccc(C(F)(F)F)n5)ccc4c3=O)c21` (atropisomer, axis not shown; (P)) [Example 3, N—((S)-1-((3P)-3-(4-chloro-1-methyl-3-(methylsulfonamido)-1H-indazol-7-yl)-4-oxo-7-(4-(trifluoromethyl)pyrimidin-2-yl)-3,4-dihydroquinazolin-2-yl)-2-(3,5-difluorophenyl)ethyl)-2-((3bS,4aR)-3-(difluoromethyl)-5,5-difluoro-3b,4,4a,5-tetrahydro-1H-cyclopropa[3,4]cyclopenta[1,2-c]pyrazol-1-yl)acetamide], the EC50 in data set [1] was 0.1 nM. In data set [2], the CC50 at 4 days is > 500 nM.

In the case of `Cn1nc(NS(C)(=O)=O)c2c(Cl)ccc(-n3c([C@H](Cc4cc(F)cc(F)c4)NC(=O)Cn4nc(C(F)F)c5c4C(F)(F)[C@@H]4C[C@H]54)nc4cc(-c5cc(S(C)(=O)=O)ccn5)ccc4c3=O)c21` (atropisomer, axis not shown; (P)) [Example 4, N—((S)-1-((3P)-3-(4-chloro-1-methyl-3-(methylsulfonamido)-1H-indazol-7-yl)-7-(4-(methylsulfonyl)pyridin-2-yl)-4-oxo-3,4-dihydroquinazolin-2-yl)-2-(3,5-difluorophenyl)ethyl)-2-((3bS,4aR)-3-(difluoromethyl)-5,5-difluoro-3b,4,4a,5-tetrahydro-1H-cyclopropa[3,4]cyclopenta[1,2-c]pyrazol-1-yl)acetamide], the EC50 in data set [1] was 0.053 nM. The CC50 at 4 days in data set [2] is > 500 nM.

Regarding `COc1ccc(-c2ccc3c(=O)n(-c4ccc(Cl)c5c(NS(C)(=O)=O)nn(C)c45)c([C@H](Cc4cc(F)cc(F)c4)NC(=O)Cn4nc(C(F)F)c5c4C(F)(F)[C@@H]4C[C@H]54)nc3c2)c(C)n1` (atropisomer, axis not shown; (P)) [Example 5, N—((S)-1-((3P)-3-(4-chloro-1-methyl-3-(methylsulfonamido)-1H-indazol-7-yl)-7-(6-methoxy-2-methylpyridin-3-yl)-4-oxo-3,4-dihydroquinazolin-2-yl)-2-(3,5-difluorophenyl)ethyl)-2-((3bS,4aR)-3-(difluoromethyl)-5,5-difluoro-3b,4,4a,5-tetrahydro-1H-cyclopropa[3,4]cyclopenta[1,2-c]pyrazol-1-yl)acetamide], the EC50 in data set [1] came to 0.94 nM. For the same molecule, the CC50 at 4 days in data set [2] was > 500 nM.

Turning to `Cc1nc(C)c(-c2ccc3c(=O)n(-c4ccc(Cl)c5c(NS(C)(=O)=O)nn(C)c45)c([C@H](Cc4cc(F)cc(F)c4)NC(=O)Cn4nc(C(F)F)c5c4C(F)(F)[C@@H]4C[C@H]54)nc3c2)s1` (atropisomer, axis not shown; (P)) [Example 6, N—((S)-1-((3P)-3-(4-chloro-1-methyl-3-(methylsulfonamido)-1H-indazol-7-yl)-7-(2,4-dimethylthiazol-5-yl)-4-oxo-3,4-dihydroquinazolin-2-yl)-2-(3,5-difluorophenyl)ethyl)-2-((3bS,4aR)-3-(difluoromethyl)-5,5-difluoro-3b,4,4a,5-tetrahydro-1H-cyclopropa[3,4]cyclopenta[1,2-c]pyrazol-1-yl)acetamide], the EC50 in data set [1] came out at 0.12 nM. Also, in data set [2], the CC50 at 4 days is > 500 nM.

Take `COc1ccc(-c2ccc3c(=O)n(-c4ccc(Cl)c5c(NS(C)(=O)=O)nn(C)c45)c([C@H](Cc4cc(F)cc(F)c4)NC(=O)Cn4nc(C(F)F)c5c4C(F)(F)[C@@H]4C[C@H]54)nc3c2)nn1` (atropisomer, axis not shown; (P)) [Example 7, N—((S)-1-((3P)-3-(4-chloro-1-methyl-3-(methylsulfonamido)-1H-indazol-7-yl)-7-(6-methoxypyridazin-3-yl)-4-oxo-3,4-dihydroquinazolin-2-yl)-2-(3,5-difluorophenyl)ethyl)-2-((3bS,4aR)-3-(difluoromethyl)-5,5-difluoro-3b,4,4a,5-tetrahydro-1H-cyclopropa[3,4]cyclopenta[1,2-c]pyrazol-1-yl)acetamide]: the EC50 in data set [1] is 0.053 nM. Also, the CC50 at 4 days in data set [2] was > 500 nM.

As to `Cn1nc(NS(C)(=O)=O)c2c(Cl)ccc(-n3c([C@H](Cc4cc(F)cc(F)c4)NC(=O)Cn4nc(C(F)F)c5c4C(F)(F)[C@@H]4C[C@H]54)nc4cc(-c5ncccc5S(C)(=O)=O)ccc4c3=O)c21` (atropisomer, axis not shown; (P)) [Example 8, N—((S)-1-((3P)-3-(4-chloro-1-methyl-3-(methylsulfonamido)-1H-indazol-7-yl)-7-(3-(methylsulfonyl)pyridin-2-yl)-4-oxo-3,4-dihydroquinazolin-2-yl)-2-(3,5-difluorophenyl)ethyl)-2-((3bS,4aR)-3-(difluoromethyl)-5,5-difluoro-3b,4,4a,5-tetrahydro-1H-cyclopropa[3,4]cyclopenta[1,2-c]pyrazol-1-yl)acetamide], the half-maximal effective concentration (EC50) in data set [1] came to 0.078 nM. Also, the CC50 at 4 days in data set [2] is > 500 nM.

`COc1cnc(C)nc1-c1ccc2c(=O)n(-c3ccc(Cl)c4c(NS(C)(=O)=O)nn(C)c34)c([C@H](Cc3cc(F)cc(F)c3)NC(=O)Cn3nc(C(F)F)c4c3C(F)(F)[C@@H]3C[C@H]43)nc2c1` (atropisomer, axis not shown; (P)) [Example 9, N—((S)-1-((3P)-3-(4-chloro-1-methyl-3-(methylsulfonamido)-1H-indazol-7-yl)-7-(5-methoxy-2-methylpyrimidin-4-yl)-4-oxo-3,4-dihydroquinazolin-2-yl)-2-(3,5-difluorophenyl)ethyl)-2-((3bS,4aR)-3-(difluoromethyl)-5,5-difluoro-3b,4,4a,5-tetrahydro-1H-cyclopropa[3,4]cyclopenta[1,2-c]pyrazol-1-yl)acetamide]: in data set [1], the EC50 was found to be 0.058 nM. Also, in data set [2], the CC50 at 4 days was > 500 nM.

With `COc1cccnc1-c1ccc2c(=O)n(-c3ccc(Cl)c4c(NS(C)(=O)=O)nn(C)c34)c([C@H](Cc3cc(F)cc(F)c3)NC(=O)Cn3nc(C(F)F)c4c3C(F)(F)[C@@H]3C[C@H]43)nc2c1` (atropisomer, axis not shown; (P)) [Example 11, N—((S)-1-((3P)-3-(4-chloro-1-methyl-3-(methylsulfonamido)-1H-indazol-7-yl)-7-(3-methoxypyridin-2-yl)-4-oxo-3,4-dihydroquinazolin-2-yl)-2-(3,5-difluorophenyl)ethyl)-2-((3bS,4aR)-3-(difluoromethyl)-5,5-difluoro-3b,4,4a,5-tetrahydro-1H-cyclopropa[3,4]cyclopenta[1,2-c]pyrazol-1-yl)acetamide], the EC50 in data set [1] came out at 0.12 nM. Further, the CC50 at 4 days in data set [2] was > 500 nM.

As to `Cn1nc(NS(C)(=O)=O)c2c(Cl)ccc(-n3c([C@H](Cc4cc(F)cc(F)c4)NC(=O)Cn4nc(C(F)F)c5c4C(F)(F)[C@@H]4C[C@H]54)nc4cc(-c5ccccc5C(F)F)ccc4c3=O)c21` (atropisomer, axis not shown; (P)) [Example 12, N—((S)-1-((3P)-3-(4-chloro-1-methyl-3-(methylsulfonamido)-1H-indazol-7-yl)-7-(2-(difluoromethyl)phenyl)-4-oxo-3,4-dihydroquinazolin-2-yl)-2-(3,5-difluorophenyl)ethyl)-2-((3bS,4aR)-3-(difluoromethyl)-5,5-difluoro-3b,4,4a,5-tetrahydro-1H-cyclopropa[3,4]cyclopenta[1,2-c]pyrazol-1-yl)acetamide], the EC50 in data set [1] is 0.37 nM. In data set [2], the CC50 at 4 days is > 500 nM.

Consider `Cn1nc(NS(C)(=O)=O)c2c(Cl)ccc(-n3c([C@H](Cc4cc(F)cc(F)c4)NC(=O)Cn4nc(C(F)F)c5c4C(F)(F)[C@@H]4C[C@H]54)nc4cc(-c5ccccc5OC(F)(F)F)ccc4c3=O)c21` (atropisomer, axis not shown; (P)) [Example 14, N—((S)-1-((3P)-3-(4-chloro-1-methyl-3-(methylsulfonamido)-1H-indazol-7-yl)-4-oxo-7-(2-(trifluoromethoxy)phenyl)-3,4-dihydroquinazolin-2-yl)-2-(3,5-difluorophenyl)ethyl)-2-((3bS,4aR)-3-(difluoromethyl)-5,5-difluoro-3b,4,4a,5-tetrahydro-1H-cyclopropa[3,4]cyclopenta[1,2-c]pyrazol-1-yl)acetamide], for which the EC50 in data set [1] was 2.1 nM. The CC50 at 4 days in data set [2] was > 500 nM.
